The values below come from patent US20100190957A1, “SPECIFIC THERAPY AND MEDICAMENT USING INTEGRIN LIGANDS FOR TREATING CANCER” (priority 2007, published 2010).

SMILES strings stand for the structures. Several values for one entry are separate records, joined by “and”; a condition that tells them apart may be missing. Equal values may be shown once. Entries after “also recorded” stand apart in the source; their conditions may differ.

For data set [1], the system named is recurrent glioblastoma (GBM). Put plainly: Phase IIa trial of cilengitide single agent therapy in patients with recurrent glioblastoma.
Method: (§6) Methods: In this multicenter, open-label, randomized, uncontrolled study, pts with GBM and measurable disease that had relapsed after previous therapy with temozolomide and radiotherapy were randomized to receive cilengitide at doses of either 500 mg or 2000 mg i.v., 2×/week, until progression. Histopathology diagnosis and MRI imaging were subject to independent blinded review. The primary endpoint was Progression Free Survival (PFS) at 6 months (mths). Secondary endpoints included response, survival, time to disease progression, safety, tolerability and pharmacokinetics.
For data set [2], the system named is newly diagnosed glioblastoma (GBM). Put plainly: Phase I/IIa trial of cilengitide and temozolomide with concomitant radiotherapy in newly diagnosed glioblastoma. Format: in vivo, human. The method, then:
Patients and methods: Fifty-two pts (PS 0-1: 92%, 2: 8%; median age 57 yrs) after biopsy (n=9/17%) or tumor resection (n=43/83%) were treated with standard TMZ/RT (Stupp et al. NEJM 2005). In addition Cilengitide (500 mg i.v., 2×/week) was started one week before TMZ/RT and given throughout for the duration of chemotherapy or until progression. Primary endpoint was progression free survival rate at 6 months (target: 65%). Patients were followed with MRI every 2 months. Histopathologic diagnosis and MRI imaging were independently reviewed, MGMT promotor methylation status was assessed in 45 (86.5%) pts.

Data set [3] deals with various brain tumors. The note with it: humans; cited from earlier work.
Data set [4] deals with human umbilical vein endothelial cells (HUVECs). As to the kind of experiment: Serum growth stimulation (proliferation) assay, Alamar Blue, HUVEC. Format: cell-based. The method, then: (§1) The effect of integrin alpha V blocker EMD 121974 (Cilengitide) on the viability of human carcinoma cells were tested, in combination with vinorelbine and paclitaxel, respectively, in a cell viability assay, dependent on reduction of Alamar blue dye. Each agent alone could inhibiting carcinoma viability, used together the compounds show an advantagous and preferably synergistic inhibitory effect.
(§2) The methods established and described in detail previously (Goodman and Hahn a; b) were used to measure the effect of combinations of integrin inhibitors and chemotherapeutics on carcinoma cell and human endothelial cell proliferation.
(§3) Points were run in duplicate or in triplicate. Reagent blanks, containing media plus Alamar Blue without cells, were run on each plate. Blank values were subtracted from test values and were routinely 5-10% of uninhibited control values.
In the growth assay Cilengitide was tested in the range of 50 μM to 0.1 nM.
(§4) Chemotherapeutic agents and αv-integrin blockers were serially diluted alone or together (combination therapy). In some assays the chemotherapeutic agent was serially diluted alone or in combination with of alpha-v integrin blocker. Growth inhibition curves were plotted and a shift of the combination therapy curve to lower concentrations in relation to the single agent curves was interpreted as an additional effect, produced by combination versus monotherapy.
(§5) The αv-integrin competitive inhibitor Cilengitide (EMD 121974) was tested alone and in combination with vinorelbine in a serum growth stimulation assay using human carcinoma cells or human umbilical vein endothelial cells (HUVECs). In these assays cells are cultured in serum, or in an endothelial growth stimulation medium (Goodman & Hahn).

For data set [5], the system named is recurrent glioblastoma (GBM). The note with it: human, in vivo.
Method: as §6
Data set [6] deals with U251 human glioblastoma cells. Put plainly: Rat orthotopic glioblastoma model, radiotherapy / cilengitide scheduling experiments (survival). Also noted: key to Status at Date of Termination: Sick = moribund and removed from study; Healthy = indicates sampled for tissue at date shown, but alive at this point; Alive = surviving at time point shown. Format: in vivo, NIH rnu nude rats. Particulars: for Days Post Implant / Status at Date of Termination: per animal, listed as Rt + EMD; for Days Post Implant: at date of termination, plus 7 subsequent daily boluses, 4 mg/kg. The method, then:
NIH rnu nude rats are anaesthetized, restrained, and injected intracerebrally 1 mm retro orbitally, 3mm to the right of the bregma and at a depth of 2.5 mm with 5×10E5 U251 human glioblastoma cells suspended in 10 ul of culture medium, using a #2701 Hamilton syringe fitted with a 26 gauge needle, essentially as previously described (Engebraaten et al., 1999). After 14 days, cilengitide (4 mg/kg) is given as an intraperitoneal bolus in PBS, at various time (8 h, 4 h, 2 h, 1 h) prior to a single treatment with single, collimated, dorsal-ventral beam of 6 MV x-rays, so that 95-100% of the central axis dose of 25 Gy hit the tumor volume (Kim et al., 1999). Each of the 7 subsequent days the animals also received an identical i.p. bolus of cilengitide. The animals are maintained under ad libitum food and drink until they become moribund, or are sampled for tissue analysis (in the t-4 and t-8 h groups, where the animals are healthy past 230 days post tumor injection). A Kaplan-Meier survival curve is calculated and plotted (FIG. 1) from the raw data (Table 1). All animals in the RT monotherapy group died by 120 d.

The test system of data set [7] is renal carcinoma (A498). Put plainly: Proliferation / cell viability assay, Alamar Blue, A498. Format: cell-based, human. The note with it: for EC50: Homo sapiens, A498, agent alone or + Cilengitide (2 μM constant). The method, then:
as §1, §2, §3, §4, §5
Cilengitide concentration is 2μM (constant).

In data set [8] the test system is NSCLC A549. As to the kind of experiment: Proliferation / cell viability assay, Alamar Blue, A549. Format: cell-based, human. The note with it: for EC50: Homo sapiens, A549, agent alone or + Cilengitide. On the procedure:
as §1, §2, §3, §4, §5

Data set [9] has as its system SCCHN (Detroit562). As to the kind of experiment: Proliferation assay, Detroit 562. Format: cell-based, human. The note with it: Cilengitide 2 μM (constant).
Setting [10] is: Homo sapiens, HUVEC, agent alone.
Where [11] appears, read: Homo sapiens, HUVEC, in combination with 2 μM Cilengitide.

As for `CC(C)[C@H]1C(=O)N[C@@H](CCCN=C(N)N)C(=O)NCC(=O)N[C@@H](CC(=O)O)C(=O)N[C@H](Cc2ccccc2)C(=O)N1C` [Cilengitide, cyclo-(Arg-Gly-Asp-DPhe-NMeVal)], the “12 mth overall survival (OS) rate” value in [1] (500 mg arm) was determined as 24.4%. In addition, the “median Overall Survival (mOS)” value in data set [1] (500 mg arm, 95% CI 5.2-9.3 mths) amounted to 6.5 mths; in [1] (2000 mg arm, 95% CI 6.3-15.7 mths) it was 9.9 mths. For the same molecule, the “PFS rate at 6 mths” value in data set [1] (500 mg or 2000 mg i.v. 2x/week, both arms, n=13/81 pts) is recorded as 16.1%. The “12 mth OS rate” value in data set [1] (2000 mg arm) was 37.5%. For the same molecule, the “grade 4 therapy related AEs” value in [1] (500 and 2000 mg) is “No grade 4 therapy related AEs were reported”. The “Treatment related NCI CTC grade 3 adverse event: arthralgia/myalgia” value in data set [1] (at 500 mg) stood at 1 patient. Moreover, the “Treatment related NCI CTC grade 3 adverse event: elevated liver enzymes” value in data set [1] (at 500 mg) turned out to be 1 patient. Also, the “Treatment related NCI CTC grade 3 adverse event: weight increase/edema” value in data set [1] (at 2000 mg) turned out to be 1 patient. In addition, the “pts still progression-free and on treatment at the time the abstract was issued” value in data set [1] (both arms, six of 81 pts) is 7.4%. The “tolerability in single agent therapy” value in data set [1] (two dose levels (500 and 2000 mg)) is recorded as “tolerated well”. The “haematological grade 3 and 4 toxicity: neutropenia” value in [2] (Cilengitide 500 mg + TMZ/RT, 5/52) came to 9.6%. Besides, the “haematological grade 3 and 4 toxicity: thrombocytopenia” value in data set [2] (Cilengitide 500 mg + TMZ/RT, 7/52) is on record as 13.4%. Also, the “haematological grade 3 and 4 toxicity: lymphopenia” value in data set [2] (Cilengitide 500 mg + TMZ/RT, 28/52) is recorded as 53.8%. Besides, the “Treatment related non-hematologic grade 3 toxicities, patients” value in data set [2] (Cilengitide 500 mg + TMZ/RT, n=3/52) is recorded as 5.7%. For the same molecule, the “tolerability of the combination with TMZ/RT” value in data set [2] (Cilengitide 500 mg i.v. 2x/week + TMZ/RT) is “well tolerated”. Moreover, the “patients progression free at 6 months (PFS-6)” value in data set [2] (Cilengitide 500 mg i.v. 2x/week added to standard TMZ/RT, 34/52, 95% CI 50.9-78.0%) is reported as 65.4%. Further, the “sigmoid perforation (grade 2)” value in data set [2] (patient with a history of sigmoid diverticulosis) is on record as “One”. The PFS-6 rate in [2] (subgroup with methylated MGMT promoter (23/52), Cilengitide 500 mg + TMZ/RT, historical control 69%) worked out at 91%; in [2] (subgroup with unmethylated MGMT promotor (22/52), Cilengitide 500 mg + TMZ/RT, historical control 40%) it was 40.9%. Further, the “MTD / side effect profile” value in [3] was “no known MTD in humans”. For the same molecule, the IC50 in [4] (agent alone) was 700 nM. Also, the “CTC grade 2 cerebral hemorrhage” value in data set [5] is “One”. In addition, the “Days Post Implant” value was 112 days and 113 days and 130 days and 141 days in data set [6] (cilengitide bolus 4 mg/kg i.p. 1 hour pre-irradiation (Rt 25 Gy)); 120 days and 147 days and 162 days and 196 days in data set [6] (cilengitide bolus 4 mg/kg i.p. 2 hours pre-irradiation (Rt 25 Gy)); 238 Days (2×) and 254 Days (2×) in data set [6] (cilengitide bolus 4 mg/kg i.p. 4 hours pre-irradiation (Rt 25 Gy)); 287 Days (2×) and 257 Days (2×) in [6] (cilengitide bolus 4 mg/kg i.p. 8 hours pre-irradiation (Rt 25 Gy)). The “Status at Date of Termination” value is on record as “(Sick) Sep. 1, 2005; also recorded: (Sick) Sep. 2, 2005; also recorded: (Sick) Sep. 19, 2005; also recorded: (Sick) Sep. 30, 2005” in [6] (cilengitide 4 mg/kg 1 hour pre-irradiation (Rt 25 Gy)); “(Sick) Aug. 10, 2005; also recorded: (Sick) Sep. 6, 2005; also recorded: (Sick) Sep. 21, 2005; also recorded: (Sick) Oct. 25, 2005” in [6] (cilengitide 4 mg/kg 2 hours pre-irradiation (Rt 25 Gy)); “(Healthy) Nov. 29, 2005; also recorded: (Alive) Dec. 15, 2005” in data set [6] (cilengitide 4 mg/kg 4 hours pre-irradiation (Rt 25 Gy)); “(Alive) Dec. 15, 2005; also recorded: (Healthy) Nov. 15, 2005” in data set [6] (cilengitide 4 mg/kg 8 hours pre-irradiation (Rt 25 Gy)). Further, the “animals healthy past days post tumor injection” value in [6] (t-4 and t-8 h groups, cilengitide 4 mg/kg i.p. + 25 Gy) is reported as more than 230 days.

Consider `CC(=O)O[C@H]1C(=O)[C@@]2(C)[C@H]([C@H](OC(=O)c3ccccc3)[C@]3(O)C[C@H](OC(=O)[C@H](O)[C@@H](NC(=O)c4ccccc4)c4ccccc4)C(C)=C1C3(C)C)[C@]1(OC(C)=O)CO[C@@H]1C[C@@H]2O` [Paclitaxel], for which the EC50 in data set [7] is 100 nM; in [8], 8 nM. Also, the IC50 in [4] (setting [10]) was 10 nM; in [4] (setting [11]), 0.05 nM.

Take `CCC1=C[C@@H]2CN(C1)Cc1c([nH]c3ccccc13)[C@@](C(=O)OC)(c1cc3c(cc1OC)N(C)[C@H]1[C@@](O)(C(=O)OC)[C@H](OC(C)=O)[C@]4(CC)C=CCN5CC[C@]31[C@@H]54)C2` [Vinorelbine]: in data set [9], the “effect of combination with Cilengitide on SCCHN (Detroit562) cell proliferation” value is given as “synergistically enhanced”. Further, the “effect of combination with Cilengitide on A498 cell proliferation” value in data set [7] (Cilengitide constant at 2 μM) is “synergistically enhanced”. For the same molecule, the EC50 in [7] amounted to 60 nM; in [8], 8 nM. Moreover, the “effect of combination with Cilengitide on growth of A549” value in [8] is given as “synergistically enhanced”. The IC50 is 20 nM in data set [4] (setting [10]) and 0.8 nM in [4] (setting [11]).
